≈ marks a conversion by molar mass, not a printed value.
How the values were obtained:
A-549 = test: MTT cytotoxicity, A-549; assay type: cell-based; details: Homo sapiens, A549, mean ± SD
Protocol: (§1) The cytotoxic activities of the constructed members were assessed via the reported MTT method[49–52] (Supporting information).
(§2) The cytotoxic screening was performed using the MTT assay. […] Besides, the HCT-116 one was sensitive to only two samples, while the MCF7 was sensitive to one sample only. Two standard cytotoxic drugs: Dox and 5-fluorouracil (5-FU) were also applied on the same used cancer cell lines as references.

Caco-2 = test: MTT cytotoxicity, Caco-2; assay type: cell-based; details: Homo sapiens, mean ± SD
Protocol: as §1, §2

HCT-116 = test: MTT cytotoxicity, HCT-116; assay type: cell-based; details: Homo sapiens, mean ± SD
Protocol: as §1, §2

[1] = Cytotoxic effects on normal bone marrow cells; assay type: cell-based, mice; details: mouse, mean ± SD
Protocol: as §1
The dose–response curves for the nanoform on each cell line are shown in the Supporting information, and the respective IC50s are shown in Table 3. The most promising cytotoxic samples were further investigated for their cytotoxic effects on normal mice bone marrow cells. The overall trending results were increasing the proliferation of the bone marrow cells at high concentrations of the samples, especially the 5b NPs nanoform sample, which reached up to 200% compared to the untreated cells. The dose–response curves on the bone marrow cells are represented in the Supporting information.

HepG2 = test: MTT cytotoxicity, HepG2; assay type: cell-based; details: Homo sapiens, mean ± SD
Protocol: as §1, §2

MCF7 = test: MTT cytotoxicity, MCF7; assay type: cell-based; details: Homo sapiens, mean ± SD
Protocol: as §1, §2

Topo I = biological target: T1, Topo I (Homo sapiens, UniProt P11387); test: Topo I inhibitory assay; assay type: biochemical
T1 sequence (P11387 1-765): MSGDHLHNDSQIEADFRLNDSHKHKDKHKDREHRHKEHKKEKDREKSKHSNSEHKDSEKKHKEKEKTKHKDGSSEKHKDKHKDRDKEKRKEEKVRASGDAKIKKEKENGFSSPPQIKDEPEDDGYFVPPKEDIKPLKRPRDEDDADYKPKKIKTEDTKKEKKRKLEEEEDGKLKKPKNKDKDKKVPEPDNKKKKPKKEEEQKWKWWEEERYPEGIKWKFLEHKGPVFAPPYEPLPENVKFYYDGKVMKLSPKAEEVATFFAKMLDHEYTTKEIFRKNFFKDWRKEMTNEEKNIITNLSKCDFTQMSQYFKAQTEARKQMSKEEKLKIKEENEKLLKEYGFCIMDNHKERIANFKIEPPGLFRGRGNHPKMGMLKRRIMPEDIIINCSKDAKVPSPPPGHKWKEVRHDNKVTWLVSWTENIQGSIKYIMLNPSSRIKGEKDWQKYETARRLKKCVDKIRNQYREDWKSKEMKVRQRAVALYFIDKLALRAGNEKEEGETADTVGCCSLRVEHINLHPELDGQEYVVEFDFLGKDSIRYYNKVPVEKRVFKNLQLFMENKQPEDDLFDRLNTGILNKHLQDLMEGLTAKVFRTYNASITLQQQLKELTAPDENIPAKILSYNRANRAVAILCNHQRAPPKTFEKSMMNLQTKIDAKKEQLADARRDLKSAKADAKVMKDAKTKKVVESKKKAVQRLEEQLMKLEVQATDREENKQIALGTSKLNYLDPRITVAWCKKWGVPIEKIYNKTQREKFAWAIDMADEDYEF
Protocol: (§3) The tested members were subjected to Topo I inhibitory activity evaluation using the previously reported method. While the Topo II inhibitory assay was done according to the method described by Patra et al.[55] (Supporting information).
(§4) Thus, compounds 5b and 7d in addition to their nano complexes 5b NPs and 7d NPs were evaluated for their enzyme inhibitory effects.

DNA = DNA intercalation assay (linear DNA formation); assay type: biochemical; details: even at low concentrations; gel
Protocol: The reported procedure by Atwal et al. was our guide to test the DNA intercalating ability of our candidates[56] (Supporting information).
The ability of the designed members to intercalate onto the DNA molecules and increase the levels of Topo I–DNA as well as Topo II-DNA cleavage complexes by stabilising the enzymes–DNA covalent complexes were also assayed. Thus, the amount of linear DNA formed by compounds 5b and 7d, in addition to their nanoforms 5b NPs and 7d NPs, was measured. […] As so, the designed congeners were then considered promising DNA intercalating members (Figure 11).

Topo II = Topo II inhibitory assay; assay type: biochemical
Protocol: as §3, §4

Row | SMILES | melting point [°C] | IC50 (A-549) [mg/L] | IC50 (Caco-2) [mg/L] | IC50 (HCT-116) [mg/L] | IC50 [1] [mg/L] | IC50 (HepG2) [mg/L] | IC50 (MCF7) [mg/L] | IC50 (Topo I) [µM] | formation of linear DNA (DNA) | IC50 (Topo II) [µM]
1 | CCn1c2c(c(=O)[nH]c1=O)C1(C(=O)Nc3ccccc31)c1c(n(CC)c(=O)[nH]c1=O)N2 [Compound 3, 1′,9′-Diethyl-1′H-spiro[indoline-3,5′-pyrido[2,3-d:6,5-d′]dipyrimidine]-2,2′,4′,6′,8′(3′H,7′H,9′H,10′H)-pentaone] | > 300 | 291 ± 16.4 (≈ 689 µM) | 259 ± 9.4 (≈ 614 µM) |  |  |  |  |  |  | 
2 | O=c1[nH]cc(F)c(=O)[nH]1 [Compound 5-FU, 5-fluorouracil, reference compound] |  | 1.1 ± 0.1 (≈ 8.46 µM) | 4.4 ± 0.3 (≈ 33.8 µM) | 76.3 ± 6.8 (≈ 587 µM) | 103 ± 9.8 (≈ 792 µM) | 103 ± 9.8 (≈ 792 µM) | 39.3 ± 2.9 (≈ 302 µM) |  |  | 
3 | Cn1c2c(c(=O)[nH]c1=O)C1(C(=O)Nc3ccc([N+](=O)[O-])cc31)c1c(n(C)c(=O)[nH]c1=O)N2 [Compound 5a, 1′,9′-Dimethyl-5-nitro-1′H-spiro[indoline-3,5′-pyrido[2,3-d:6,5-d′]dipyrimidine]-2,2′,4′,6′,8′(3′H,7′H,9′H,10′H)-pentaone] | > 300 |  | 207 ± 19.4 (≈ 471 µM) |  |  | 563 ± 25.5 (≈ 1280 µM) |  |  |  | 
4 | CCn1c2c(c(=O)[nH]c1=O)C1(C(=O)Nc3ccc([N+](=O)[O-])cc31)c1c(n(CC)c(=O)[nH]c1=O)N2 [Compound 5b, 1′,9′-Diethyl-5-nitro-1′H-spiro[indoline-3,5′-pyrido[2,3-d:6,5-d′]dipyrimidine]-2,2′,4′,6′,8′(3′H,7′H,9′H,10′H)-pentaone] |  |  | 35.2 ± 4.1 (≈ 75.3 µM) |  |  | 114 ± 10.1 (≈ 243 µM) |  | 0.651 | considerable formation of linear DNA | 4.47
5 | Cn1c2c(c(=O)[nH]c1=S)C1(C(=O)Nc3ccc([N+](=O)[O-])cc31)c1c(n(C)c(=S)[nH]c1=O)N2 [Compound 5c, 1′,9′-Dimethyl-5-nitro-2′,8′-dithioxo-2′,3′,8′,9′-tetrahydro-1′H-spiro[indoline-3,5′-pyrido[2,3-d:6,5-d′]dipyrimidine]-2,4′,6′(7′H,10′H)-trione] | > 300 | 525 ± 50.6 (≈ 1110 µM) | 247 ± 12.5 (≈ 525 µM) | 186 ± 19.4 (≈ 394 µM) |  | 250 ± 19.3 (≈ 531 µM) |  |  |  | 
6 | O=C1Nc2ccc([N+](=O)[O-])cc2C12c1c(n(Cc3ccccc3)c(=O)[nH]c1=O)Nc1c2c(=O)[nH]c(=O)n1Cc1ccccc1 [Compound 5d, 1′,9′-Dibenzyl-5-nitro-1′H-spiro[indoline-3,5′-pyrido[2,3-d:6,5-d′]dipyrimidine]-2,2′,4′,6′,8′(3′H,7′H,9′H,10′H)-pentaone] | > 300 | 279 ± 18.9 (≈ 472 µM) | 108 ± 10 (≈ 183 µM) |  |  | 422 ± 22.8 (≈ 713 µM) |  |  |  | 
7 | O=C1Nc2ccc([N+](=O)[O-])cc2C12c1c([nH]c(=O)[nH]c1=O)Nc1[nH]c(=O)[nH]c(=O)c12 [Compound 5e, 5-Nitro-1′H-spiro[indoline-3,5′-pyrido[2,3-d:6,5-d′]dipyrimidine]-2,2′,4′,6′,8′(3′H,7′H,9′H,10′H)-pentaone] | > 300 |  | 233 ± 19.2 (≈ 566 µM) |  |  | 147 ± 10.5 (≈ 357 µM) |  |  |  | 
8 | Cn1c2c(c(=O)[nH]c1=O)C1(C(=O)Nc3ccc(Cl)cc31)c1c(n(C)c(=O)[nH]c1=O)N2 [Compound 7a, 5-Chloro-1′,9′-dimethyl-1′H-spiro[indoline-3,5′-pyrido[2,3-d:6,5-d′]dipyrimidine]-2,2′,4′, 6′,8′(3′H,7′H,9′H,10′H)-pentaone] |  | 50.1 ± 5.9 (≈ 117 µM) | 113 ± 10.4 (≈ 263 µM) |  |  | 120 ± 9.2 (≈ 281 µM) |  |  |  | 
9 | CCn1c2c(c(=O)[nH]c1=O)C1(C(=O)Nc3ccc(Cl)cc31)c1c(n(CC)c(=O)[nH]c1=O)N2 [Compound 7b, 5-Chloro-1′,9′-diethyl-1′H-spiro[indoline-3,5′-pyrido[2,3-d:6,5-d′]dipyrimidine]-2,2′,4′, 6′,8′(3′H,7′H,9′H,10′H)-pentaone] | > 300 |  |  |  |  |  | 171 ± 22.8 (≈ 374 µM) |  |  | 
10 | Cn1c2c(c(=O)[nH]c1=S)C1(C(=O)Nc3ccc(Cl)cc31)c1c(n(C)c(=S)[nH]c1=O)N2 [Compound 7c, 5-Chloro-1′,9′-dimethyl-2′,8′-dithioxo-2′,3′,8′,9′-tetrahydro-1′H-spiro[indoline-3,5′-pyrido [2,3-d:6,5-d′]dipyrimidine]-2,4′,6′(7′H,10′H)-trione] | > 300 |  |  |  |  |  |  |  |  | 
11 | O=C1Nc2ccc(Cl)cc2C12c1c(n(Cc3ccccc3)c(=O)[nH]c1=O)Nc1c2c(=O)[nH]c(=O)n1Cc1ccccc1 [Compound 7d, 1′,9′-Dibenzyl-5-chloro-1′H-spiro[indoline-3,5′-pyrido[2,3-d:6,5-d′]dipyrimidine]-2,2′,4′, 6′,8′(3′H,7′H,9′H,10′H)-pentaone] |  | 329 ± 12.5 (≈ 566 µM) |  |  |  | 91.4 ± 11.3 (≈ 157 µM) |  | 0.419 | considerable formation of linear DNA | 2.66
12 | O=C1Nc2ccc(Cl)cc2C12c1c([nH]c(=O)[nH]c1=O)Nc1[nH]c(=O)[nH]c(=O)c12 [Compound 7e, 5-Chloro-1′H-spiro[indoline-3,5′-pyrido[2,3-d:6,5-d′]dipyrimidine]-2,2′,4′,6′,8′(3′H,7′H,-9′H,10′H)-pentaone] |  |  | 472 ± 23.6 (≈ 1180 µM) | 435 ± 39.5 (≈ 1080 µM) |  | 89.7 ± 6.5 (≈ 224 µM) |  |  |  | 
13 | Cn1c2c(c(=O)[nH]c1=O)C1(C(=O)Nc3ccc(F)cc31)c1c(n(C)c(=O)[nH]c1=O)N2 [Compound 9b, 5-Fluoro-1′,9′-dimethyl-1′H-spiro[indoline-3,5′-pyrido[2,3-d:6,5-d′]dipyrimidine]-2,2′,4′,6′,8′(3′H,7′H,9′H,10′H)-pentaone] | > 300 | 293 ± 15.4 (≈ 710 µM) | 492 ± 40.4 (≈ 1190 µM) |  |  | 86.4 ± 7.4 (≈ 210 µM) |  |  |  | 
14 | COc1cccc2c1C(=O)c1c(O)c3c(c(O)c1C2=O)C[C@@](O)(C(=O)CO)C[C@@H]3O[C@H]1C[C@H](N)[C@H](O)[C@H](C)O1 [Dox, doxorubicin, reference compound] |  | 0.04 ± 0.003 (≈ 0.0736 µM) | 3.7 ± 0.2 (≈ 6.81 µM) | 1.1 ± 0.1 (≈ 2.02 µM) | 0.3 ± 0.01 (≈ 0.552 µM) | 0.3 ± 0.01 (≈ 0.552 µM) | 5.9 ± 0.5 (≈ 10.9 µM) |  |  | 

— paper PMC10444021, “Design and synthesis of new spirooxindole candidates and their selenium nanoparticles as potential dual Topo I/II inhibitors, DNA intercalators, and apoptotic inducers” (Journal of Enzyme Inhibition and Medicinal Chemistry, 2023)
